This assay addresses T1, GCase (Homo sapiens, UniProt P04062).
T1 construct: endogenous in cells; host or cells: HeLa cells
T1 sequence (P04062 40-536): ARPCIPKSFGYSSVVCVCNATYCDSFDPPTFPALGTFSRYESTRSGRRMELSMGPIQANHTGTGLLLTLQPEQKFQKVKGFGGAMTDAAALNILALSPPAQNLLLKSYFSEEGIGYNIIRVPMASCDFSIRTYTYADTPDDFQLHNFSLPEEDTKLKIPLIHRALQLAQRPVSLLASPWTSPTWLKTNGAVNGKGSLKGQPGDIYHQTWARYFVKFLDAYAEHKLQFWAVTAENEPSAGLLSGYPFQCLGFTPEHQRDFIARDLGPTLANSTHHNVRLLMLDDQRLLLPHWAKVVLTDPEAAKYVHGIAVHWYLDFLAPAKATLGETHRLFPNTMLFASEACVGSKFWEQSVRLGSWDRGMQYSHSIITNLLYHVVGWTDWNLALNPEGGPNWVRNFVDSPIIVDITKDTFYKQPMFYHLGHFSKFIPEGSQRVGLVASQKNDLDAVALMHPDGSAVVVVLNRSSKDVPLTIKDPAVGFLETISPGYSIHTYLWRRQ
Put plainly: activation of GCase in a live cell PFB assay in HELA cells. The format is cell-based.

For the compound `C[C@@H]1[C@H](C(=O)N2CCCC(COc3ccccc3)C2)CCN1c1ccccc1` (stereo partly shown) [Compound 199], the EC50 lay within 10 to 50 µM. `COc1ccc(OCC2CCN(Cc3cc(C)no3)CC2)cc1` [Compound 425] showed a 50% effective concentration (EC50) greater than 100 µM. As for `C[C@@H](Oc1cccnc1C(F)(F)F)[C@H]1CCCN(c2cncc(-c3nncs3)n2)C1` [Compound 45b, 2-(6-((S)-3-((R)-1-((2-(trifluoromethyl)pyridin-3-yl)oxy)ethyl)piperidin-1-yl)pyrazin-2-yl)-1,3,4-thiadiazole], the EC50 was less than 10 µM. In the case of `O=C(c1ccc2cc[nH]c2c1)N1CCC(Oc2cnccc2C(F)(F)F)CC1` [Compound 310, (1H-Indol-6-yl)(4-((4-(trifluoromethyl)pyridin-3-yl)oxy)piperidin-1-yl)methanone], the EC50 fell in the range of 10 to 50 µM. The value for `O=C(c1cnn[nH]1)N1CCC(COc2ccc3c(c2)CCC3)CC1` [Compound 423] was 50 to 100 µM. Turning to `CCn1ncnc1CN1CCC(COc2ccc(OC)cc2)CC1` [Compound 455], the EC50 fell in the range of 10 to 50 µM.

For the compound `C[C@H](Oc1cccnc1C(F)(F)F)[C@H]1CCCN(c2cncc(-c3nncs3)n2)C1` [Compound 45a, 2-(6-((S)-3-((S)-1-((2-(Trifluoromethyl)pyridin-3-yl)oxy)ethyl)piperidin-1-yl)pyrazin-2-yl)-1,3,4-thiadiazole], the EC50 was less than 10 µM. In turn, `FC(F)Cn1ncc2ncc(N3C[C@@H]4[C@@H](COc5ccc(C(F)(F)F)cn5)[C@@H]4C3)nc21` [Compound 61, (1R,5S,6S)-3-[1-(2,2-difluoroethyl)-1H-pyrazolo[3,4-b]pyrazin-6-yl]-6-({[5-(trifluoromethyl)pyridin-2-yl]oxy}methyl)-3-azabicyclo[3.1.0]hexane] showed an EC50 of 10 to 50 µM.

In turn, `C[C@@H]1CCN(c2cnc3cnn(CC(F)F)c3n2)C[C@H]1COc1cccnc1C(F)(F)F` [Compound 48d, 1-(2,2-difluoroethyl)-6-((3S,4R)-4-methyl-3-(((2-(trifluoromethyl)pyridin-3-yl)oxy)methyl)piperidin-1-yl)-1H-pyrazolo[3,4-b]pyrazine] returned an EC50 of 10 to 50 µM. With `COc1ccc(OCC2CCN(C(=O)CN3CCCN(C)CC3)CC2)cc1` [Compound 474], the EC50 is greater than 100 µM. `O=C(c1ccc2cc[nH]c2c1)N1C[C@@H]2[C@@H](COc3cccc(C(F)(F)F)n3)[C@@H]2C1` [Compound 74, 6-[(1R,5S,6S)-6-({[6-(trifluoromethyl)pyridin-2-yl]oxy}methyl)-3-azabicyclo[3.1.0]hexane-3-carbonyl]-1H-indole] came in with an EC50 of 10 to 50 µM.

In the case of `C[C@H](Oc1ccccc1C(F)(F)F)[C@@H]1CCCN(c2cnc3cnn(CC(F)F)c3n2)C1` [Compound 266b, 1-(2,2-difluoroethyl)-6-((R)-3-((S)-1-(2-(trifluoromethyl)phenoxy)ethyl)piperidin-1-yl)-1H-pyrazolo[3,4-b]pyrazine], the 50% effective concentration (EC50) was 10 to 50 µM.

Turning to `O=C(NCCc1ccccc1)N1CCC(Oc2ccc(C(F)(F)F)cn2)CC1` [Compound 379], the EC50 is greater than 100 µM. As to `C[C@@H]1CCN(c2cnc3cnn(CC(F)F)c3n2)C[C@@H]1COc1cccnc1C(F)(F)F` [Compound 48a, 1-(2,2-Difluoroethyl)-6-((3R,4R)-4-methyl-3-(((2-(trifluoromethyl)pyridin-3-yl)oxy)methyl)piperidin-1-yl)-1H-pyrazolo[3,4-b]pyrazine], the EC50 is greater than 100 µM. As for `CCOc1ccccc1C(=O)N1CCC(Oc2ccc(C(F)(F)F)cn2)CC1` [Compound 391], the EC50 was 10 to 50 µM.

For the compound `C[C@@H](Oc1ccccc1C(F)(F)F)[C@H]1CCCN(c2cnc3cnn(CC(F)F)c3n2)C1` [Compound 266a, 1-(2,2-Difluoroethyl)-6-((S)-3-((R)-1-(2-(trifluoromethyl)phenoxy)ethyl)piperidin-1-yl)-1H-pyrazolo[3,4-b]pyrazine], the EC50 fell in the range of 10 to 50 µM. Compound `CC(=O)N1CCC(n2ncc3ncc(N4CCCC(COc5ccccc5C(F)(F)F)C4)nc32)CC1` (stereo not shown) [Compound 111, 1-(4-(6-(3-((2-(trifluoromethyl)phenoxy)methyl)piperidin-1-yl)-1H-pyrazolo[3,4-b]pyrazin-1-yl)piperidin-1-yl)ethan-1-one] registered an EC50 of less than 10 µM. `O=C(Cc1csc(-c2ccccc2)n1)N1CCC(Oc2cccnc2C(F)(F)F)CC1` [Compound 400, 2-(2-Phenyl-1,3-thiazol-4-yl)-1-(4-{[2-(trifluoromethyl)pyridin-3-yl]oxy}piperidin-1-yl)ethan-1-one] gave an EC50 of 10 to 50 µM.

For the compound `Cn1c(-c2ccc(F)cc2)nc2ncc(C(=O)N3CCCC(COc4cccnc4C(F)(F)F)C3)nc21` (stereo not shown) [Compound 96, (2-(4-Fluorophenyl)-1-methyl-1H-imidazo[4,5-b]pyrazin-6-yl)(3-(((2-(trifluoromethyl)pyridin-3-yl)oxy)methyl)piperidin-1-yl)methanone], the EC50 lay within 10 to 50 µM. Consider `CC1CC(COc2cccnc2C(F)(F)F)CN(C(=O)c2ccc3cc[nH]c3c2)C1` (single isomer, unassigned) [Compound 252b], for which the EC50 was less than 10 µM.

The compound `CN1CCC(COc2cccc(-c3cnc4ccccc4n3)c2)CC1` [Compound 428] showed an EC50 of 10 to 50 µM. In the case of `O=C(c1ccc2cc[nH]c2c1)N1CCC(OCc2ccccc2)CC1` [Compound 415, 6-[4-(Benzyloxy)piperidine-1-carbonyl]-1H-indole], the EC50 was in the range of 50 to 100 µM. `Cc1ccccc1OCC1CCCN(c2cnc3cnn(-c4nncs4)c3n2)C1` (stereo not shown) [Compound 23, 2-(6-(3-((o-Tolyloxy)methyl)piperidin-1-yl)-1H-pyrazolo[3,4-b]pyrazin-1-yl)-1,3,4-thiadiazole] registered a concentration for a half-maximal effect (EC50) of 10 to 50 µM. The compound `Cn1c(-c2ccccc2)cc2nc(C(=O)N3CCCC(COc4cccnc4C(F)(F)F)C3)cnc21` (stereo not shown) [Compound 68, (5-methyl-6-phenyl-5H-pyrrolo[2,3-b]pyrazin-2-yl)(3-(((2-(trifluoromethyl)pyridin-3-yl)oxy)methyl)piperidin-1-yl)methanone] displayed an EC50 of 10 to 50 µM. `COc1cnc2c(n1)c(C(=O)N1CCCC(COc3ccccc3C)C1)c(-c1ccccc1)n2C` (stereo not shown) [Compound 264, (2-Methoxy-5-methyl-6-phenyl-5H-pyrrolo[2,3-b]pyrazin-7-yl)(3-((o-tolyloxy)methyl)piperidin-1-yl)methanone] had an EC50 of 10 to 50 µM.

`FC(F)(F)c1cccc(OCC2CN(c3cncc(-c4nncs4)n3)CCC2(F)F)n1` (stereo not shown) [Compound 64, 2-[4,4-Difluoro-3-({[6-(trifluoromethyl)pyridin-2-yl]oxy}methyl)piperidin-1-yl]-6-(1,3,4-thiadiazol-2-yl)pyrazine] returned an EC50 of 10 to 50 µM. The value for `COC1(C(=O)N2CCCC(COc3ccccc3)C2)CCCCCCC1` (stereo not shown) [Compound 176] was 10 to 50 µM; that for `CC(Oc1cccnc1C(F)(F)F)C1CCCN(c2cnc3cnn(CC(F)F)c3n2)C1` (stereo not shown) [Compound 26, 1-(2,2-Difluoroethyl)-6-(3-(1-((2-(trifluoromethyl)pyridin-3-yl)oxy)ethyl)piperidin-1-yl)-1H-pyrazolo[3,4-b]pyrazine] was less than 10 µM. The compound `CC(=O)N1CCC(c2cc3nc(N4CCCC(COc5ccccc5)C4)cnc3n2C)CC1` (stereo not shown) [Compound 41, 1-(4-{5-Methyl-2-[3-(phenoxymethyl)piperidin-1-yl]-5H-pyrrolo[2,3-b]pyrazin-6-yl}piperidin-1-yl)ethan-1-one] returned an EC50 greater than 100 µM.

In the case of `FC(F)(F)c1ncccc1OC[C@@H]1[C@H]2CN(c3cncc(-c4nncs4)n3)C[C@@H]12` [Compound 40, (1R,5S,6S)-3-[6-(1,3,4-Thiadiazol-2-yl)pyrazin-2-yl]-6-({[2-(trifluoromethyl)pyridin-3-yl]oxy}methyl)-3-azabicyclo[3.1.0]hexane], the EC50 is 10 to 50 µM. With `COc1ccc(OCC2CCN(c3nncc(C)c3C)CC2)cc1` [Compound 430] the figure was 50 to 100 µM; with `FC(F)Cn1ncc2ncc(N3CCC(F)(F)C(COc4cccnc4C(F)(F)F)C3)nc21` (stereo not shown) [Compound 20, 3-({1-[1-(2,2-difluoroethyl)-1H-pyrazolo[3,4-b]pyrazin-6-yl]-4,4-difluoropiperidin-3-yl}methoxy)-2-(trifluoromethyl)pyridine], less than 10 µM; with `CN(CC1CCCN(c2cnc3cnn(CC(F)F)c3n2)C1)c1cccc(C(F)(F)F)n1` (stereo not shown) [Compound 239, N-((1-(1-(2,2-Difluoroethyl)-1H-pyrazolo[3,4-b]pyrazin-6-yl)piperidin-3-yl)methyl)-N-methyl-6-(trifluoromethyl)pyridin-2-amine], 10 to 50 µM. With `CC(=O)c1ccc(OCC(=O)N2CCC(OCc3ccccc3)CC2)cc1` [Compound 478] the figure was 50 to 100 µM; with `COc1ccccc1OCC1CCCN(C(=O)c2c(-c3ccccc3)n(C)c3nccnc23)C1` (stereo not shown) [Compound 235, (3-((2-Methoxyphenoxy)methyl)piperidin-1-yl)(5-methyl-6-phenyl-5H-pyrrolo[2,3-b]pyrazin-7-yl)methanone], 10 to 50 µM. For `N#Cc1cccnc1OC1CCN(C(=O)C23CC4CC(CC(C4)C2)C3)CC1` [Compound 375], the EC50 lay within 10 to 50 µM.

On to `FC(F)Cn1ncc2ncc(N3CCCC(F)(COc4cccnc4C(F)(F)F)C3)nc21` (stereo not shown) [Compound 35, 3-({1-[1-(2,2-Difluoroethyl)-1H-pyrazolo[3,4-b]pyrazin-6-yl]-3-fluoropiperidin-3-yl}methoxy)-2-(trifluoromethyl)pyridine], for which the EC50 lay in the range of 10 to 50 µM.
